Data as given in PubChem BioAssay (NCI).
Where “and” joins values, the source holds several entries; their conditions need not be identical. Equal entries are not always repeated.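 All cell lines were grown in 96-well plates and treated with compound for 48 hours. Abbreviation: GI50, concentration required for 50% inhibition of growth. TGI: total growth inhibition.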

Tests used:
Assay in all cases: DTP human tumour cell line panel, 48 h
[1] = system: OVCAR-8 ovarian
[2] = system: SF-539 CNS
[3] = system: COLO 205 colon
[4] = system: HCT-15 colon
[5] = system: SNB-75 CNS
[6] = system: SW-620 colon
[7] = system: SNB-19 CNS
[8] = system: RXF 393 renal
[9] = system: SK-MEL-2 melanoma
[10] = system: M14 melanoma

SMILES | GI50 [1] [µM] | TGI [1] | GI50 [2] [µM] | TGI [2] | GI50 [3] [µM] | TGI [3] | GI50 [4] [µM] | TGI [4] | GI50 [5] [µM] | TGI [5] [µM] | GI50 [6] [µM] | TGI [6] [µM] | GI50 [7] [µM] | TGI [7] | GI50 [8] [µM] | TGI [8] | GI50 [9] [µM] | TGI [9] | GI50 [10] [µM] | TGI [10]
CN1CCN(Cc2ccc(NC(=O)c3[nH]ncc3Nc3ncnc4[nH]ccc34)cc2)CC1 | 0.387 | 3.09 µM | 0.133 | 0.429 µM | 0.193 | 0.427 µM | 1.01 | 62.7 µM | 0.0393 | 0.371 | 0.381 | 11.6 | 0.373 | 6.59 µM | 0.199 | 0.464 µM | 0.325 | 0.921 µM | 0.473 | 8.66 µM
C=C(C)[C@@H]1CCc2c(O)c(O)c(=O)cc(C)c2C1 |  | 22.3 µM |  | 7.4 µM |  | 15 µM |  | > 100 µM |  | > 83.3 |  | > 100 |  | > 100 µM |  | > 21.2 µM |  | > 100 µM |  | > 100 µM
O=C1C=CC(=O)c2c1ccc1c3ccccc3n(Cc3ccccc3)c21 |  | > 100 µM |  | > 74.1 µM |  | 38.9 µM |  | 46.2 µM |  | > 100 |  | 25.7 |  | > 100 µM |  | 32.8 µM |  | 99.6 µM |  | 42 µM
C=CCC12CC(=O)CCC1c1ccc(OC)cc1C2=O (configuration not stated) |  | > 100 µM |  | > 100 µM |  | > 100 µM |  | > 100 µM |  | > 100 |  | > 100 |  | > 100 µM |  | > 100 µM |  | > 100 µM |  | > 100 µM
COc1cc(/C=C/C(=O)CC(=O)/C=C/c2cc(OC)c(O)c(OC)c2)cc(OC)c1O | 18 | 25 µM and 61.3 µM | 44.2 | 25 µM and > 100 µM | 19.3 | 25 µM and 40.2 µM |  | > 25 µM and 90.4 µM |  | 61.4 |  | > 100 |  | 25 µM and > 100 µM | 2.63 | 7.3 µM and 16.1 µM | 4.24 | 16.3 µM and 16.6 µM | 10.4 | 25 µM and 28 µM
Cc1ccccc1-n1c(=S)[nH]c2c(sc(=O)n2-c2ccccc2C)c1=O |  | > 100 µM |  | > 100 µM |  | > 100 µM |  | > 100 µM |  | > 100 |  | > 100 |  | > 100 µM |  | > 100 µM |  | > 100 µM |  | > 100 µM
NC(N)=NC(N)=Nc1ccc(C(=O)O)cc1 |  | > 100 µM |  | > 100 µM |  | > 100 µM |  | > 100 µM |  | > 100 |  | > 100 |  | > 100 µM |  | > 100 µM |  | > 100 µM |  | > 100 µM
CC1CCCC(C#N)(NOC2=NCCN2)C1 (configuration not stated) | 41 | > 100 µM | 15.5 | 40.4 µM | 61.3 | > 100 µM | 44.6 | > 100 µM | 40.3 | > 100 | 36.3 | > 100 | > 100 | > 100 µM | 65.1 | > 100 µM | 57.3 | > 100 µM | 84.1 | > 100 µM
O=C1OC(=O)C23CSCC12C1C=CC3O1 (configuration not stated) |  | > 100 µM |  | > 100 µM |  | > 100 µM |  | > 100 µM |  | > 100 |  | > 100 |  | > 100 µM |  | > 100 µM |  | > 100 µM |  | > 100 µM
COc1cc(F)c(F)cc1C(=O)c1cnc(NC2CCN(S(C)(=O)=O)CC2)nc1N | 4.43 | > 25 µM | 3.85 | 11.1 µM | 2.42 | 6.14 µM | 3.46 | > 25 µM | 3.83 | 10.9 | 1.27 | 24.8 | 2.32 | > 25 µM | 3.01 | 7.18 µM | 3.86 | 12.6 µM | 4.73 | > 25 µM
CC1=C(CO)C(=O)O[C@@H]([C@@H](C)[C@H]2CC[C@H]3[C@@H]4C[C@H]5O[C@]56[C@@H](O)C=CC(=O)[C@]6(C)[C@H]4CC[C@]23C)C1 |  | 1.76 µM |  | 2.3 µM |  | 0.81 µM |  | 1.94 µM |  | 3.25 |  | 0.603 |  | 6.07 µM | 0.44 | 1.66 µM |  | 1.93 µM |  | 1.06 µM
COc1ccc(-c2cc3ccccc3[nH]c2=O)cc1OC |  | > 100 µM |  | > 100 µM |  | > 100 µM |  | > 100 µM |  | > 100 |  | > 100 |  | > 100 µM |  | > 100 µM |  | > 100 µM |  | > 100 µM
O=C1CS/C(=N/S(=O)(=O)c2ccc(N3N=C4c5ccccc5CC4C3c3cccs3)cc2)N1C(=O)c1ccccc1 (configuration not stated) | 45.7 | > 100 µM | 44.6 | > 100 µM | 51.1 | > 100 µM | 56.3 | > 100 µM | > 100 | > 100 | 38.5 | > 100 | 77 | > 100 µM | 90.7 | > 100 µM | > 100 | > 100 µM | 44.7 | > 100 µM
O=C(O)COc1ccc(OCC(=O)O)cc1 | 0.911 | 10.8 µM | 0.365 | 5.06 µM | 1.05 | 13.4 µM | 9.43 | > 100 µM | 0.684 | 10.1 | 0.312 | 12.8 | 0.273 | 11.3 µM | 0.97 | 4.64 µM | 3.28 | 15.9 µM | 0.847 | 12.3 µM
Cc1nn(C)c2ncnc(N/N=C/c3cccc(O)c3O)c12 | 0.413 | > 100 µM | 0.371 | 7.1 µM | 1.11 | > 78.7 µM | 0.225 | > 100 µM | 0.548 | 6.8 | 0.48 | > 100 | 0.664 | > 48.4 µM | 0.513 | > 27.7 µM | 2.98 | > 76.3 µM | 0.259 | 1.72 µM
COc1cc(Cl)c(CC(=O)c2c[nH]c3ccccc23)cc1OC |  | > 100 µM |  | 19.4 µM |  | > 100 µM |  | > 100 µM |  | 31.5 |  | > 100 |  | > 95 µM |  | 40.9 µM |  | > 100 µM |  | > 100 µM
